# Measurements: US20250262336A1, “[177LU] LUTETIUM-PSMA I&T COMPOSITION AND DOSIMETRY, KIT, METHOD OF MAKING, AND METHOD OF USING THEREOF” (Curium US LLC, priority 2023, published 2025)
# Where “and” joins values, the source holds several entries; their conditions need not be identical. Identical values can stand only once.
# Experiment: Cycle 1 plasma PK (gamma counting of plasma, bi-exponential fit)
# Format: in vivo, human
# Description: Additionally, for PK assessment, whole blood samples were collected at six timepoints (Pre-Infusion, 1 h, 4 h, 24 h, 48 h, and 168 h) and processed to extract plasma. All plasma samples were gamma counted locally for analysis of pharmacokinetics.
# PK plasma samples were collected at pre-Infusion, 1 h, 4 h, 24 h, 48 h, and 168 h, and counted for radioactivity. Blood samples were first centrifuged to extract plasma, and then the radioactivity in plasma was counted in a gamma counter.
# Whole blood samples were collected as detailed in the protocol Schedule of Events i.e. pre-injection, and then at 1 h, 4 h, 24 h, 48 h, and 168 h post-injection. The samples were first centrifuged to separate plasma, and the radioactivity in the plasma was then measured using a gamma counter. Plasma concentrations were subsequently fitted with a bi-exponential function to derive outcome parameters such as the half-life and clearance rate of the radiopharmaceutical in the plasma.
# For each sample, collect sufficient sample volume for triplicate aliquots to meet the measurement requirements of your institution's gamma counter and perform measurements according to standard procedure. Blood will be processed and plasma will be measured on the gamma counter, as described in the following subsections.
# All blood samples drawn must be aliquoted 3 times, labeled appropriately, and stored per standard procedure for later measurement of plasma in the qualified gamma counter. All samples will be counted as a group for each patient for each Cycle, no later than 24 hours following the final sample collection.
# Collect 5 ml of blood in a BD PPT system (Plasma Protein Preservation Tube-draw volume of 5 mL).
# Centrifuge at 18-25° C. at 1100 g for 10 min. The resulting supernatant is designated plasma.
# Gamma Counter Measurements: All patient samples must be counted for 60 seconds, with a counting energy window of 102-229 keV.
# [1] = Cycle 1, plasma, patient 42-030 excluded
smiles,measurement,setting,value
"O=C(O)CC[C@H](NC(=O)N[C@@H](CCCCNC(=O)CCCCCCC(=O)NCCCC[C@@H](NC(=O)[C@@H](Cc1ccccc1)NC(=O)[C@@H](Cc1ccc(O)c(I)c1)NC(=O)CC[C@H](C(=O)O)N1CCN(CC(=O)O)CCN(CC(=O)O)CCN(CC(=O)O)CC1)C(=O)O)C(=O)O)C(=O)O [^177Lu-PSMA-I&T, (3S,7 S,26R,29R,32R,37R)-29-benzyl-32-(4-hydroxy-3-iodobenzyl)-5,13,20,28,31,34-hexaoxo-37-(4,7,10-tris(carboxymethyl)-1,4,7,10-tetraazacyclododecan-1-yl)-4,6,12,21,27,30,33-heptaazaheptatriacontane-1,3,7,26,37-pentacarboxylic acid; lutetium-177 (III), metal not drawn]",Time of Peak Concentration,"Cycle 1, plasma, individual patients, time of first sample",53.00 min and 60.00 min (6×) and 51.00 min (2×) and 58.00 min and 61.00 min (2×) and 50.00 min and 63.00 min and 57.00 min and 55.00 min and 52.00 min (2×) and 68.00 min and 71.00 min and 65.00 min and 33.00 min and 40.00 min and 69.00 min and 56.00 min and 127.00 min and 47.00 min
same,Peak Concentration Value,"Cycle 1, plasma, individual patients, value at first sample",0.04 fIA/L (10×) and 0.03 fIA/L (4×) and 0.05 fIA/L (7×) and 0.01 fIA/L and 0.06 fIA/L (2×) and 0.02 fIA/L and 0.07 fIA/L (2×)
same,"AUC Total, Mean",[1],22.77 fIA/L × min
same,"AUC Total, max",[1],37.86 fIA/L × min
same,"AUC Total, median",[1],20.84 fIA/L × min
same,"AUC Total, min",[1],3.07 fIA/L × min
same,"Peak Concentration Value, Mean",[1],0.04 fIA/L
same,"Peak Concentration Value, max",[1],0.07 fIA/L
same,"Peak Concentration Value, median",[1],0.04 fIA/L
same,"Peak Concentration Value, min",[1],0.01 fIA/L
same,Time of Peak Concentration,[1],33.00 min
same,"Time of Peak Concentration, Mean",[1],59.19 min
same,"Time of Peak Concentration, max",[1],127.00 min
same,"Time of Peak Concentration, median",[1],59.00 min
same,"Vc, Mean",[1],20.29 L
same,"Vc, max",[1],111.78 L
same,"Vc, median",[1],16.33 L
same,"Vc, min",[1],9.92 L
same,"time to peak, patient 80-007","cycle 1, first post-administration sample acquired with a delay",127 min
